The melting point is the temperature, or range, at which the solid turns liquid.

With `Nc1cccc(C2=NNC(=O)Cc3cc4c(cc32)OCO4)c1`, the melting point lay within 118 to 122 °C.
The compound `COc1ccc(-c2nc(-c3ccc(F)cc3)c(-c3ccc(S(C)(=O)=O)cc3)s2)cc1` registered a melting point of 187 to 189 °C.
Take `CN(C)CCNC(=O)c1nnc(-c2ccccc2)cc1-c1cccc([N+](=O)[O-])c1`: the melting point is 157 to 158 °C.
Take `CC(C)OC(=O)C1Oc2ccccc2Cc2ccccc2O1`: the melting point was in the range of 94 to 97 °C.
Regarding `CC(=O)Oc1c(C)cc(C(=O)Nc2c(CO)nc3c(C)cc(C)cc3c2-c2ccccc2Cl)cc1C`, the melting point was 134 to 136 °C.
The compound `NC(=O)N(O)CCNC(=O)c1csc(-c2ccccc2)n1` yielded a melting point of 188 to 192 °C.
As to `Cc1cc(C)c2cccc(OCc3c(Cl)ccc(S(=O)(=O)N4CCC[C@H]4C(=O)NCCCNC(=O)Cc4ccc(C=NN)cc4)c3Cl)c2n1`, the melting point is 184 to 188 °C.
In turn, `COC(=O)c1cnn(C)c1C(=O)Nc1ccn2nc(-c3ccccc3)nc2c1` yielded a melting point of 243 to 247 °C.
`CN(Cc1cccs1)C(=O)C12CC3CC(CC(O)(C3)C1)C2` registered a melting point of 88 to 91 °C.
The figure for `COC(=O)CC[C@H](NC(=O)c1ccc(C#Cn2cnc3nc(C)c(OC(=O)C(C)(C)C)c-3c2O)cc1)C(=O)OC` is 163 °C; for `CN(C)C=C(C#N)C(=O)c1cc(F)c(Cl)cc1Cl` it is 138 to 139 °C.
In turn, `OC1CSC(Oc2cccnc2-c2cccnc2)C(O)C1O` (stereo unspecified) yielded a melting point of 80 °C.
`Nc1cc(C(=O)O)cc(OCc2ccccc2)c1C(=O)c1ccccc1` came in with a melting point of 216 to 218 °C.
Take `CCCCc1nc2c(N)nc3cccnc3c2n1CCCCN1CC(C(N)=O)=CC=C1N1CCOCC1`: the melting point fell in the range of 95 to 100 °C.
In the case of `C=CCC1(C)OC(=S)Nc2ccc(-c3cccc(Cl)c3)cc21` (stereo unspecified), the melting point was in the range of 150 to 151 °C.
`CCNc1nc(C)c(-c2ccnc(Nc3cccc(S(=O)(=O)NCCO)c3)n2)s1`: the melting point lay within 124 to 125 °C.
The compound `CCOC(=O)CC(=O)c1c(C(=O)OC)n(C)c2cc(Cl)ccc12` registered a melting point of 250 to 252 °C.
In turn, `CCN(C(=O)NC)c1ccc(Cl)nc1` yielded a melting point of 135 to 136 °C.
The figure for `N#CN=C(NCCC[C@@H](NC(=O)C(c1ccccc1)c1ccccc1)C(=O)NCc1ccc(O)cc1)Oc1ccccc1` is 110 to 112 °C.
In turn, `COc1cc2c(cc1OC)C(=O)c1cc3ccccc3cc1C2=O` had a melting point greater than 250 °C.
Under `CNCC#CC1=Cc2ccccc2Sc2ccc(Cl)cc21` stands 92 to 94 °C; under `COc1cc(C(C)(C)C)c(OC)cc1I`, 80.5 to 82.5 °C.
In turn, `O=C(NCCOc1cccc2c1OCC(CO)O2)c1ccc(F)cc1` (stereo unspecified) had a melting point of 124 °C.
Regarding `O=S(=O)(c1ccccc1)n1c(-c2c(F)cccc2F)nc2ccccc21`, the melting point was 104 to 106 °C.
The figure for `CCCCCCCCCCCCCCCCSCC(CNS(=O)(=O)CCCCl)COC` (stereo unspecified) is 41.5 to 43 °C; for `O=C1CCN(C(=O)OCc2ccc([N+](=O)[O-])cc2)CC1` it is 123 to 124 °C.
`Cc1cc(C#N)sc1-c1ccc2c(c1)C(C)(C)OC(=S)N2` registered a melting point of 211 to 212 °C.
The figure for `COc1ccc(-c2ccc3[nH]c(=O)ccc3c2)cc1` is 262 to 264 °C; for `COCC(CCO)(OC)c1cccc(OCc2ccc3ccccc3c2)c1` (stereo unspecified) it is 64 to 65 °C; for `COc1cc(-c2ccc(C=O)cc2)nc(C)n1` it is 114 to 115 °C.
`CC(=O)Nc1ccc(C=CC2=NNC(=O)C(C)(C)C2)cc1` registered a melting point of 255 to 257 °C.
`C=CCCC(O)=C(C#N)C(=O)Nc1ccc(Cl)c(C)c1` showed a melting point of 134 °C.
In the case of `CNC(Cc1ccccc1NC(=O)C(C)(C)C)c1ccccc1C` (stereo unspecified), the melting point fell in the range of 77 to 79 °C.
`O=C(CCCN1CCCC1)NC(Cc1c[nH]c2ccccc12)C(=O)CCc1cc(C(F)(F)F)cc(C(F)(F)F)c1` (stereo unspecified) returned a melting point of 99 to 100 °C.
As to `O=c1nc(-c2ccccc2)c2cc([N+](=O)[O-])ccc2n1Cc1cccs1`, the melting point was in the range of 219 to 220 °C.
As for `CC(=O)SCC(C)C(=O)N(CC(=O)O)C1Cc2ccccc2C1` (stereo unspecified), the melting point lay in the range of 81 to 83 °C.
In the case of `O=C1c2ccccc2CCC1CN1CCC(O)(c2ccc(Cl)cc2)CC1` (stereo unspecified), the melting point lay within 227 to 228 °C.
Under `CCOC(=O)C1=C(C)NC(C(OCC)OCC)=C(C(=O)OCC)C1c1ccco1` (stereo unspecified) stands 59 to 60 °C; under `O=C(Cc1csc(-c2cnccn2)n1)NC1CCN(Cc2ccc(Cl)c(Cl)c2)CC1`, 186 to 189 °C.
As to `Cc1noc(-c2ccc(C(F)(F)F)cc2)c1C(=O)Nc1ccccc1C(=O)O`, the melting point lay in the range of 205 to 206 °C.
Regarding `CSc1c(CC(C)(C)C(=O)O)n(Cc2ccc(Cl)cc2)c2ccc(C(C)C)cc12`, the melting point was in the range of 143 to 144 °C.
Consider `CC(C)(C)OC(=O)NCC1CC(ON2C(=O)c3ccccc3C2=O)C1` (stereo unspecified), for which the melting point fell in the range of 145 to 150 °C.
`CCN1C(=O)C(C)(C)C(=O)N(C)c2cc(CCCN(CCn3ccc4ccoc4c3=O)Cc3cccnc3C)ccc21`: the melting point is 106 to 115 °C.
Take `COc1ccc2cc(C(C)C(=O)OCC(=O)OCCO)ccc2c1` (stereo unspecified): the melting point lay in the range of 87 to 90 °C.
The compound `CC(C)N1CCOC(COc2cccc3c2CC=C3)C1` (stereo unspecified) had a melting point of 107 to 109 °C.
`COC(=O)c1cc(C(=O)c2c(C)c(-c3cccc(OCC(=O)OC(C)(C)C)c3)c3ccccn23)ccc1N` displayed a melting point of 81 °C.
The compound `COc1ccc(C(=O)Nc2ccccc2C(=O)NCCCC(=O)O)cc1` showed a melting point of 172 to 174 °C.
In turn, `COc1cc(OC)nc(Oc2nccc(-c3ccccc3)c2C(=O)O)n1` yielded a melting point of 165 to 169 °C.
`CCCc1c(OCCCOc2cc(O)c(-c3ccc(F)cc3)cc2CC)cccc1Oc1cc(F)ccc1C(=O)O` displayed a melting point of 62 to 64 °C.
Take `NC(=S)C1(c2ccccn2)CCCS1` (stereo unspecified): the melting point amounted to 192 °C.
In turn, `Cc1cccc(NC(=O)c2cc(Cl)cc(C)n2)c1` came in with a melting point of 95 °C.
`CC(C)(C)c1cc(OC[Si](C)(C)Cc2ccccc2)cc(C(C)(C)C)c1O` displayed a melting point of 76 to 77 °C.
`CC(C)(C)c1ccc2c(c1)cc(-c1ccccc1)n2-c1ccc(O)c(C(=O)O)c1` returned a melting point of 271 to 273 °C.
`Cc1cccc(C)c1NC(=O)c1ccc([N+](=O)[O-])cc1`: the melting point lay within 212 to 215 °C.
`Clc1cccc(-c2cnccn2)c1` yielded a melting point of 53 to 54 °C.
Under `CCOC(=O)COc1ccc(Cn2c(-c3ccc(OC)cc3)c(C)c3cc(OCc4ccccc4)ccc32)cc1` stands 90 to 96 °C; under `CCOC(=O)CCc1cn(Cc2ccc(O)cc2)nc1O`, 143 to 144 °C; under `COc1ccc2c(c1)c(SC(C)C)c(C(N)=O)n2C`, 122 to 124 °C.
Take `O=C(NNc1ccc(C(F)(F)F)cc1)c1ccccc1F`: the melting point lay in the range of 163 to 165 °C.
Under `CC1(C)CC(c2cccc(C(F)(F)F)c2)c2ccc(O)cc2O1` (stereo unspecified) stands 63 to 68 °C.
As to `N#CN=C(Nc1cccnc1)NC(NC(=O)c1ccc(Cl)cc1)C12CC3CC(CC(C3)C1)C2` (stereo unspecified), the melting point fell in the range of 209 to 210 °C.
`Cc1ccccc1N1CCc2c(C)nc3c(C)cccc3c21` gave a melting point of 126 to 128 °C.
On to `Nc1nc(=O)n(S(=O)(=O)c2ccc(Cl)cc2)cc1F`, for which the melting point fell in the range of 174 to 178 °C.
Under `CN(C)c1ccc2ccc(=O)oc2c1` stands 161 °C; under `CC(C)Cn1c(CN)c(-c2ccccc2)c2cc(/C=C/C(N)=O)ccc2c1=O`, 228 to 230 °C.
In turn, `Cc1nc2cc(S(=O)(=O)n3c(COC(C)(C)C(=O)O)cc4cc(Cl)ccc43)ccc2s1` yielded a melting point of 134 to 136 °C.
As to `CC(C)(CNC1(c2ccccc2Cl)C(=O)Nc2ccc(Cl)cc21)NC(=O)OC(C)(C)C` (stereo unspecified), the melting point was found to be 164 °C.
Under `O=C1CCC(N2Cc3c(OCc4ccc(C(=O)NCCN5CCCCC5)cc4)cccc3C2=O)C(=O)N1` (stereo unspecified) stands 220 to 222 °C.
On to `O=C1CCN(CC(c2ccccc2)c2ccccc2)CC1C1(O)CCN(CC(c2ccccc2)c2ccccc2)CC1` (stereo unspecified), for which the melting point was 125 to 127 °C.
Under `O=C1c2cccc3cccc(c23)C(O)N1CCN1CCC(Cc2ccccc2)CC1` (stereo unspecified) stands 153 to 155 °C; under `Nc1c(Br)cc2c3c(cccc13)C(=O)N(O)C2=O`, 318 to 324 °C.
In the case of `N#Cc1c(-c2ccc(Cl)c(Cl)c2)[nH]c(C(F)(F)F)c1Cl`, the melting point is 239 to 241 °C.
The compound `O=C(NCCO)c1cc(Cl)c(O)c(Cl)c1` came in with a melting point of 174 to 178 °C.
The compound `CC(C)NC(=O)NC(C)(C)C(=O)NCCO[N+](=O)[O-]` came in with a melting point of 120 to 122 °C.
`CC(C)(Sc1ccncc1)C(=O)O` showed a melting point of 190 to 192 °C.
Under `O=C1c2ccccc2C(=O)N1CCc1ccc(F)cc1` stands 106 to 107 °C.
`CCC(Oc1c(Cl)cccc1Cl)C(=O)OC1CC(O)C=C2C=CC(C)C(CCC3CC(O)CC(=O)O3)C21` (mixture of isomers) had a melting point of 107 to 109 °C.
`CN1C(=O)C2=C(c3ccc(Br)cc3)OC(=O)C2=C1c1ccccc1` yielded a melting point of 215 to 216 °C.
With `O=[N+]([O-])c1ccnc(-c2cc(C(F)(F)F)ccc2F)c1`, the melting point came to 58.1 °C.
On to `CCCCc1nc2c(N)nc3cccnc3c2n1CCNC(=O)CC(C)CCC=C(C)C` (stereo unspecified), for which the melting point lay in the range of 163 to 164 °C.
Compound `CCNC(=O)N1CCC(c2cc(F)ccc2F)(S(=O)(=O)c2ccc(Cl)cc2)CC1` registered a melting point of 172 to 174 °C.
In the case of `Cc1c(Cc2cccc(C(F)(F)F)c2)sc2c(-c3cc(F)cc(C(N)=O)c3)cccc12`, the melting point was in the range of 146 to 147 °C.
The figure for `Cc1nc(OCC(F)(F)F)c([N+](=O)[O-])c(N2CCN(c3ccc(F)cc3)CC2)n1` is 92 to 95 °C; for `Cc1cc(F)ccc1-c1nc(N[C@@H](C)CO)nc2c1ccc(=O)n2-c1ccccc1F` it is 114 to 120 °C.
`O=C(NC(=O)C(c1ccccc1)c1ccccc1)OCC(F)(F)F` came in with a melting point of 125 to 127 °C.
On to `Cc1cccc(C(=O)Nc2ccc(N3CCN(Cc4ccc[nH]4)CC3)nc2)c1-c1ccc(C(C)C)cc1`, for which the melting point was 130 °C.

The values are drawn from a melting point compilation (Tetko et al.; mined from patent text by program, amines drawn as free bases though some values may be those of a salt).
